Measured values: the supplement of paper PMC13380429

Assays:
Details in all cases: 72 h
U2OS [1] = test: drug sensitivity score (DSS) for viability; higher = more toxic; extreme values may be limits of the assay
Caco-2 [2] = test: as above
Calu-3 [3] = test: as above
HepG2 [4] = test: as above
Vero E6 [5] = test: as above
U2OS [6] = test: cell viability relative to DMSO; higher = less toxic
Caco-2 [7] = test: as above
Calu-3 [8] = test: as above
HepG2 [9] = test: as above
Vero E6 [10] = test: as above
U2OS [11] = test: relative viability EC50 (midpoint between 100% and the lowest measured viability); higher = less toxic
Caco-2 [12] = test: as above
Calu-3 [13] = test: as above
HepG2 [14] = test: as above
Vero E6 [15] = test: as above

Compound	drug sensitivity score (U2OS [1])	drug sensitivity score (Caco-2 [2])	drug sensitivity score (Calu-3 [3])	drug sensitivity score (HepG2 [4])	drug sensitivity score (Vero E6 [5])	cell viability (U2OS [6]; 1 nM) [%]	cell viability (U2OS [6]; 10 nM) [%]	cell viability (U2OS [6]; 100 nM) [%]	cell viability (U2OS [6]; 1000 nM) [%]	cell viability (U2OS [6]; 10000 nM) [%]	cell viability (Caco-2 [7]; 1 nM) [%]	cell viability (Caco-2 [7]; 10 nM) [%]	cell viability (Caco-2 [7]; 100 nM) [%]	cell viability (Caco-2 [7]; 1000 nM) [%]	cell viability (Caco-2 [7]; 10000 nM) [%]	cell viability (Calu-3 [8]; 1 nM) [%]	cell viability (Calu-3 [8]; 10 nM) [%]	cell viability (Calu-3 [8]; 100 nM) [%]	cell viability (Calu-3 [8]; 1000 nM) [%]	cell viability (Calu-3 [8]; 10000 nM) [%]	cell viability (HepG2 [9]; 1 nM) [%]	cell viability (HepG2 [9]; 10 nM) [%]	cell viability (HepG2 [9]; 100 nM) [%]	cell viability (HepG2 [9]; 1000 nM) [%]	cell viability (HepG2 [9]; 10000 nM) [%]	cell viability (Vero E6 [10]; 1 nM) [%]	cell viability (Vero E6 [10]; 10 nM) [%]	cell viability (Vero E6 [10]; 100 nM) [%]	cell viability (Vero E6 [10]; 1000 nM) [%]	cell viability (Vero E6 [10]; 10000 nM) [%]	relative viability EC50 (U2OS [11]) [µM]	relative viability EC50 (Caco-2 [12]) [µM]	relative viability EC50 (Calu-3 [13]) [µM]	relative viability EC50 (HepG2 [14]) [µM]	relative viability EC50 (Vero E6 [15]) [µM]
CCC(=O)OCC(=O)[C@@]1(OC(=O)CC)[C@@H](C)C[C@H]2[C@@H]3CCC4=CC(=O)C=C[C@]4(C)[C@@]3(Cl)[C@@H](O)C[C@@]21C [beclomethasone-dipropionate]	0	0	0	2.6	0	96.8	102	95.9	99.1	97.2	97.1	97.3	94.3	104	111	104	106	97	101	88.6	97.3	95.7	99.2	81.3	80.2	95.8	90.6	102	80.1	99.5	> 10	> 10	> 10	> 10	> 10
C/C(=C(\CCOP(=O)(O)O)SC(=O)c1ccccc1)N(C=O)Cc1cnc(C)nc1N [benfotiamine]	0	0	0	0	0	99.1	101	95.7	98.5	99.5	99.7	101	91	94.6	89.1	97.2	96.9	95.8	95.4	92.1	95.1	92.4	88.4	92.7	97	100	98.3	98.9	97.4	96.2	> 10	> 10	> 10	> 10	> 10
O=C(O)c1ccccc1 [benzoic-acid]	0	0	0	0	0	98.9	102	99.1	98.2	95.9	99	101	95.9	98.7	98.7	99.4	101	96.8	99.2	92.6	101	95.6	104	92.4	96.3	97.1	97.6	100	97.7	102	> 10	> 10	> 10	> 10	> 10
C[N+](C)(CCOc1ccccc1)Cc1ccccc1 [bephenium-hydroxynaphthoate]	0	0	0	0	0	93.7	99.4	93.5	101	102	96.1	99.4	106	102	102	102	103	90	98	102	100	98.4	92.3	96.8	100	98.2	96.9	94.8	92.6	103	> 10	> 10	> 10	> 10	> 10
Oc1cccc(Nc2ccc(Nc3cccc(O)c3)nn2)c1 [beta-amyloid-synthesis-inhibitor]	0	0	0	0	0	106	97.1	100	100	106	101	90.4	109	101	94.4	115	94.9	98.1	106	102	102	101	97.9	98.6	104	92.4	97.3	93.8	98	95.5	> 10	> 10	> 10	> 10	> 10
CC1=C(/C=C/C(C)=C/C=C/C(C)=C/C=C/C=C(C)/C=C/C=C(C)/C=C/C2=C(C)CCCC2(C)C)C(C)(C)CCC1 [beta-carotene]	0	0	0	0	0	92.6	95.1	102	93.9	101	89.3	99.3	104	92.7	98.5	98.9	104	104	97.4	105	96.1	103	94.6	110	106	93.8	102	96.3	104	108	> 10	> 10	> 10	> 10	> 10
